Laboratory results from PMC10140010 (Investigational New Drugs, 2023).
“And” between values parts separate entries of the source, which are not always exact repeats. Equal entries are not always repeated.

Key:
MATE1 = target: T1, MATE1 (Homo sapiens, UniProt Q96FL8); test: in vitro
T1 sequence (Q96FL8 1-570): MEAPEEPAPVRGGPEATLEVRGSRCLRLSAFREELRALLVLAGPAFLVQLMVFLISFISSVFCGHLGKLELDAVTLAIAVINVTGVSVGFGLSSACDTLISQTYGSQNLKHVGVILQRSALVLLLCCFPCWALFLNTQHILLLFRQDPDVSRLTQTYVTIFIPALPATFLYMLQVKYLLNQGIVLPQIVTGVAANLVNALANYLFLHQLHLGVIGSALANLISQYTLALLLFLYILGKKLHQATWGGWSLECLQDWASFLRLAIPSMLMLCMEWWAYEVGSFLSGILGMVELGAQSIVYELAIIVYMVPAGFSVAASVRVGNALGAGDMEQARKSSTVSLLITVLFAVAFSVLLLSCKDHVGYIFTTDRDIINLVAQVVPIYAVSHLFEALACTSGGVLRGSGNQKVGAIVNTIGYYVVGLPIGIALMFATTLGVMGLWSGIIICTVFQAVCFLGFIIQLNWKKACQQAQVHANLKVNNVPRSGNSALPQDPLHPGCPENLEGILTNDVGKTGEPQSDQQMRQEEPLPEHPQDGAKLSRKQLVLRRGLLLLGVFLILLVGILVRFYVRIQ
Experimental: Using a stably transfected cell line of HEK293 expressing transporter OATP1B1, OATP1B3 or OCT2, formal substrate investigation tests were performed for three concentration gradients (30 µM, 3 µM, 0.3 µM) of iruplinalkib.

BCRP = target: T2, BCRP (Homo sapiens, UniProt Q9UNQ0); test: ABC efflux transporter inhibitor test on Caco-2 cells (E3S efflux)
T2 sequence (Q9UNQ0 1-655): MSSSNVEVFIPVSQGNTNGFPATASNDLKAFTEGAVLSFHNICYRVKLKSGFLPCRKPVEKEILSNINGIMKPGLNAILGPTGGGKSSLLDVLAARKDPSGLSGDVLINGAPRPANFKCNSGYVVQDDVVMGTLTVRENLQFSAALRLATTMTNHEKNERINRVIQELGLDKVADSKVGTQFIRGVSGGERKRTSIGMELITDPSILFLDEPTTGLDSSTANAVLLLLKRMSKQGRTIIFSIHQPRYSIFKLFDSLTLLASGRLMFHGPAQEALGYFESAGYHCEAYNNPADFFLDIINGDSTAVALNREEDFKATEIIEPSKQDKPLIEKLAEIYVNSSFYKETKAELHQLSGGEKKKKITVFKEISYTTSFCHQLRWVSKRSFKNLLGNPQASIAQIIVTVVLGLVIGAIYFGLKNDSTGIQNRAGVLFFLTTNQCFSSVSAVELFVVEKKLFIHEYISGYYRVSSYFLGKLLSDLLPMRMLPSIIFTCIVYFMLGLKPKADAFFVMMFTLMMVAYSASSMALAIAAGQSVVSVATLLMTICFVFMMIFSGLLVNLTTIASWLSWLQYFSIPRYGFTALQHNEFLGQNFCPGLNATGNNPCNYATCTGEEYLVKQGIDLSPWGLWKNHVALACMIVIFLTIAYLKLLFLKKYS

OAT3 = test: Uptake substrate investigation in HEK293 cells expressing transporter
Text: (§1) The engineered NIH-3T3 (CD74-ROS1 fusion gene) cells was obtained from Nanjing GenScript Biotechnology Co., Ltd. The engineered Ba/F3 (SLC34A2-ROS1 fusion gene) cell line was obtained from Kyinno Biotechnology (Beijing) Co., Ltd. The HCC-78 (SLC34A2-ROS1 fusion gene) cell line was purchased from Shanghai Hongshun Biotechnology Co., Ltd. The engineered NIH-3T3 (CD74-ROS1 fusion gene) cells was obtained from Nanjing GenScript Biotechnology Co., Ltd. The engineered HEK293 cell lines with OATP1B1 (Lot. No ESH6G27), OATP1B3 (Lot. No ESH7G27), OCT2 (Lot. No ESH9G27), OAT1 (Lot. No ESHCG27), OAT3 (Lot. […] No ESHDG27) were purchased from GenoMembrane and validated using the specific substrate for each transporter. All cells were cultured at 37℃ in a 5% CO2 atmosphere. Cell culture reagents were obtained from Life Technologies, Inc. See Supplemental Table 1 for details on the source of the cell lines and the media used.

[1] = parameters: method as in PMID 35087031; settings: 180 mg, once daily, patients; cited from earlier work
MATE2K = target: T3, MATE2K (Homo sapiens, UniProt Q86VL8); format: in vitro ADME
T3 construct: No ESHDG27; host or cells: HEK293

OATP1B3 [2] = test: Uptake substrate investigation in HEK293 cells expressing transporter
Text: as §1

OATP1B3 [3] = target: T4, OATP1B3 (Homo sapiens, UniProt Q9NPD5); test: as above; settings: for Uptake transport activity, Mean: OATP1B3-293; for Uptake transport activity, Mean / Ratio of uptake transit activity / Uptake transport activity, Net value: Suppl. Table 11; for Ratio of uptake transit activity / Uptake transport activity, Net value: OATP1B3-293 vs MOCK293
T4 sequence (Q9NPD5 1-702): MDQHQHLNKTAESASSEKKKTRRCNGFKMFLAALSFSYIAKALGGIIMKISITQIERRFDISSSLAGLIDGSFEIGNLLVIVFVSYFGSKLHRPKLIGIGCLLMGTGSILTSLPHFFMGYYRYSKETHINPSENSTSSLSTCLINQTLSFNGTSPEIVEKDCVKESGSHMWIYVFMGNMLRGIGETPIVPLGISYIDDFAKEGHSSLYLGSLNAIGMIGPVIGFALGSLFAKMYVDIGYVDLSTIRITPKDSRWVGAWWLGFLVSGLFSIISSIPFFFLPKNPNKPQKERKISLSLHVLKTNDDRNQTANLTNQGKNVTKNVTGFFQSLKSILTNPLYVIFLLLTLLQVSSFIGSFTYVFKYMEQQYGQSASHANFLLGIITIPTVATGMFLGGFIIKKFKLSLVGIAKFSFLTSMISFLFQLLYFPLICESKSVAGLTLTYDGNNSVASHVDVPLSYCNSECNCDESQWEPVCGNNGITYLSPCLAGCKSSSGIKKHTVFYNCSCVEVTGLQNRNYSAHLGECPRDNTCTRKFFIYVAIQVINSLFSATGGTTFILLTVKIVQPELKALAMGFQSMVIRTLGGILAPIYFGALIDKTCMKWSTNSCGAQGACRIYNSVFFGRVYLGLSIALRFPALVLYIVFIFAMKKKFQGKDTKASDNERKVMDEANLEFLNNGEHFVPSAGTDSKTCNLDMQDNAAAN
Text: as §1

[4] = human, Caco-2 cells, probe E3S (10 µM)
[5] = MOCK293, test substrate 10 μM, no inhibitor, OAT3 pre-test
[6] = OATP1B1-293 (so in the source), test substrate 10 μM, no inhibitor, OAT3 pre-test
[7] = transporter cells vs MOCK293, test substrate 10 μM, no inhibitor, OAT3 pre-test
[8] = MOCK293, test substrate 10 μM, no inhibitor, OATP1B3 pre-test
[9] = OATP1B1-293 (so in the source), test substrate 10 μM, no inhibitor, OATP1B3 pre-test
[10] = transporter cells vs MOCK293, test substrate 10 μM, no inhibitor, OATP1B3 pre-test

T3 sequence (Q86VL8 1-566 isoform Q86VL8-3): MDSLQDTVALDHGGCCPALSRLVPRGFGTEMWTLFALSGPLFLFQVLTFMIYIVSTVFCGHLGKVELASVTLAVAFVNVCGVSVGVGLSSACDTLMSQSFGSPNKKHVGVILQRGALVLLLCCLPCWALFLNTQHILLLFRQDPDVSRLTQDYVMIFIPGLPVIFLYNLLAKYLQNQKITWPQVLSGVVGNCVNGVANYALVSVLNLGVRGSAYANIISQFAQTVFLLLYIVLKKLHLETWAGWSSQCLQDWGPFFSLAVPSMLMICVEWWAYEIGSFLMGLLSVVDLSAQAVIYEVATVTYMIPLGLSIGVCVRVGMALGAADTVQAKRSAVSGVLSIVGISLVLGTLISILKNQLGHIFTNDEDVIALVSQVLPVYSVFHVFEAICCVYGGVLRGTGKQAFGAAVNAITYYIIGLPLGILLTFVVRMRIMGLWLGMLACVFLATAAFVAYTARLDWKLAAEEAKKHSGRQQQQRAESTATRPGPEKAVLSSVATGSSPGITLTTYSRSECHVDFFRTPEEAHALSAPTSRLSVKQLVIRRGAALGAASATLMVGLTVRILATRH

COc1cc(N2CCC3(CCN(C)CC3)CC2)ccc1Nc1ncc(Cl)c(Nc2ccccc2P(C)(C)=O)n1 [Iruplinalkib]
inhibition at 0.5 μM (MATE1): 46.4%
inhibition at 5 μM (MATE1): 94.5%
inhibition at 50 μM (MATE1): 112%
BCRP inhibitor (BCRP; Caco-2): BCRP inhibitor
inhibition at 0.1 μM (BCRP; [4]): -11.1%
inhibition at 0.3 μM (BCRP; [4]): 37.7%
inhibition at 1 μM (BCRP; [4]): 8.3%
inhibition at 3 μM (BCRP; [4]): 50.9%
inhibition at 10 µM (BCRP; [4]): 97.2%
inhibition at 30 μM (BCRP; [4]): 26.3%
uptake substrate of OAT3 (OAT3; HEK293): not an uptake substrate
Uptake transport activity, Mean (OAT3; [5]): 344.0 pmol/mg protein/min
Uptake transport activity, Repeat 1 / Repeat 2 (OAT3; [5]): 309.8 pmol/mg protein/min and 378.3 pmol/mg protein/min
Uptake transport activity, Mean (OAT3; [6]): 88.57 pmol/mg protein/min
Uptake transport activity, Repeat 1 / Repeat 2 (OAT3; [6]): 81.45 pmol/mg protein/min and 95.69 pmol/mg protein/min
Ratio of uptake transit activity (OAT3; [7]): 0.92
Uptake transport activity, Net value (OAT3; [7]): -255.5 pmol/mg protein/min
free steady-state average concentration (Cavg,ss) [1]: 127 nM
inhibition of MATE2K (MATE2K): stronger inhibitor
Uptake transport activity, Mean (OATP1B3 [2]; MOCK293 (OATP1B3 set), 0.3 μM, Suppl. Table 11): 5.902 pmol/mg protein/min
Uptake transport activity, Mean (OATP1B3 [2]; MOCK293 (OATP1B3 set), 3 μM, Suppl. Table 11): 44.98 pmol/mg protein/min
Uptake transport activity, Mean (OATP1B3 [2]; MOCK293 (OATP1B3 set), 30 μM, Suppl. Table 11): 484.5 pmol/mg protein/min
Uptake transport activity, Mean (OATP1B3 [2]; [8]): 230.3 pmol/mg protein/min
Uptake transport activity, Repeat 1 / Repeat 2 (OATP1B3 [2]; [8]): 221.3 pmol/mg protein/min and 239.2 pmol/mg protein/min
Uptake transport activity, Mean (OATP1B3 [2]; [9]): 327.9 pmol/mg protein/min
Uptake transport activity, Repeat 1 / Repeat 2 (OATP1B3 [2]; [9]): 313.3 pmol/mg protein/min and 342.6 pmol/mg protein/min
Ratio of uptake transit activity (OATP1B3 [2]; [10]): 1.42
Uptake transport activity, Net value (OATP1B3 [2]; [10]): 97.7 pmol/mg protein/min
uptake transport activity ratio, OATP1B3 (OATP1B3 [3]; 30 µM, 3 µM, 0.3 µM, HEK293): less than two
uptake substrate of OATP1B3 (OATP1B3 [3]; HEK293): not an uptake substrate
Uptake transport activity, Mean (OATP1B3 [3]; 0.3 μM): 8.165 pmol/mg protein/min
Uptake transport activity, Mean (OATP1B3 [3]; 3 μM): 57.94 pmol/mg protein/min
Uptake transport activity, Mean (OATP1B3 [3]; 30 μM): 641.1 pmol/mg protein/min
Ratio of uptake transit activity (OATP1B3 [3]; 0.3 μM): 1.38
Uptake transport activity, Net value (OATP1B3 [3]; 0.3 μM): 2.263 pmol/mg protein/min
Ratio of uptake transit activity (OATP1B3 [3]; 3 μM): 1.29
Uptake transport activity, Net value (OATP1B3 [3]; 3 μM): 12.964 pmol/mg protein/min
Ratio of uptake transit activity (OATP1B3 [3]; 30 μM): 1.32
Uptake transport activity, Net value (OATP1B3 [3]; 30 μM): 156.58 pmol/mg protein/min
